Test results published in the CheMixHub ionic liquid set.

Assay: xn = mol fraction of the nth substance listed

O=S(=O)([N-]S(=O)(=O)C(F)(F)F)C(F)(F)F.[Li+] + CC[n+]1ccn(C)c1.O=S(=O)([N-]S(=O)(=O)C(F)(F)F)C(F)(F)F + O
Details | electrical conductivity [S/m] | viscosity [mPa·s]
283 K, 101 kPa, x1 = 0.2649, x2 = 0 | 0.62 | –
283 K, 101 kPa, x1 = 0.2649, x2 = 0.2649 | 0.37 | 90.3
283 K, 101 kPa, x1 = 0.4189, x2 = 0.2649 | 0.049 | –
293 K, 101 kPa, x1 = 0.2649, x2 = 0 | 0.89 | 69.2
293 K, 101 kPa, x1 = 0.2649, x2 = 0.2649 | 0.56 | 55
293 K, 101 kPa, x1 = 0.4189, x2 = 0.2649 | 0.093 | 407
293.15 K, 100 kPa, x1 = 0.2745, x2 = 0.3509 | – | 55.7
293.15 K, 100 kPa, x1 = 0.3106, x2 = 0.3509 | – | 71.5
293.15 K, 100 kPa, x1 = 0.3509, x2 = 0.3509 | – | 111
293.15 K, 100 kPa, x1 = 0.3868, x2 = 0.3509 | – | 157
293.15 K, 100 kPa, x1 = 0.4189, x2 = 0.3509 | – | 220
293.15 K, 100 kPa, x1 = 0.4478, x2 = 0.3509 | – | 312
293.15 K, 100 kPa, x1 = 0.474, x2 = 0.3509 | – | 470
293.15 K, 100 kPa, x1 = 0.4978, x2 = 0.3509 | – | 715
298.1 K, 101 kPa, x1 = 0.2649, x2 = 0 | 1.04 | 55.3
298.1 K, 101 kPa, x1 = 0.2649, x2 = 0.2649 | 0.67 | 44.2
298.1 K, 101 kPa, x1 = 0.4189, x2 = 0.2649 | 0.12 | 293
298.15 K, 100 kPa, x1 = 0.2745, x2 = 0.3509 | – | 43.1
298.15 K, 100 kPa, x1 = 0.3106, x2 = 0.3509 | – | 55.3
298.15 K, 100 kPa, x1 = 0.3509, x2 = 0.3509 | – | 86.4
298.15 K, 100 kPa, x1 = 0.3868, x2 = 0.3509 | – | 120
298.15 K, 100 kPa, x1 = 0.4189, x2 = 0.3509 | – | 164
298.15 K, 100 kPa, x1 = 0.4478, x2 = 0.3509 | – | 227
298.15 K, 100 kPa, x1 = 0.474, x2 = 0.3509 | – | 336
298.15 K, 100 kPa, x1 = 0.4978, x2 = 0.3509 | – | 497
303 K, 101 kPa, x1 = 0.2649, x2 = 0 | 1.22 | 45.4
303 K, 101 kPa, x1 = 0.2649, x2 = 0.2649 | 0.8 | 36
303 K, 101 kPa, x1 = 0.4189, x2 = 0.2649 | 0.16 | 216
303.15 K, 100 kPa, x1 = 0.2745, x2 = 0.3509 | – | 34.6
303.15 K, 100 kPa, x1 = 0.3106, x2 = 0.3509 | – | 44.4
303.15 K, 100 kPa, x1 = 0.3509, x2 = 0.3509 | – | 62.3
303.15 K, 100 kPa, x1 = 0.3868, x2 = 0.3509 | – | 92.4
303.15 K, 100 kPa, x1 = 0.4189, x2 = 0.3509 | – | 126
303.15 K, 100 kPa, x1 = 0.4478, x2 = 0.3509 | – | 171
303.15 K, 100 kPa, x1 = 0.474, x2 = 0.3509 | – | 245
303.15 K, 100 kPa, x1 = 0.4978, x2 = 0.3509 | – | 356
313 K, 101 kPa, x1 = 0.2649, x2 = 0 | 1.6 | 30.9
313 K, 101 kPa, x1 = 0.2649, x2 = 0.2649 | 1.1 | 24.9
313 K, 101 kPa, x1 = 0.4189, x2 = 0.2649 | 0.25 | 125
313.15 K, 100 kPa, x1 = 0.2745, x2 = 0.3509 | – | 23.4
313.15 K, 100 kPa, x1 = 0.3106, x2 = 0.3509 | – | 30.1
313.15 K, 100 kPa, x1 = 0.3509, x2 = 0.3509 | – | 41.2
313.15 K, 100 kPa, x1 = 0.3868, x2 = 0.3509 | – | 57.6
313.15 K, 100 kPa, x1 = 0.4189, x2 = 0.3509 | – | 78.2
313.15 K, 100 kPa, x1 = 0.4478, x2 = 0.3509 | – | 102
313.15 K, 100 kPa, x1 = 0.474, x2 = 0.3509 | – | 142
313.15 K, 100 kPa, x1 = 0.4978, x2 = 0.3509 | – | 197
323 K, 101 kPa, x1 = 0.2649, x2 = 0 | 2.04 | 21.8
323 K, 101 kPa, x1 = 0.2649, x2 = 0.2649 | 1.45 | 18.2
323 K, 101 kPa, x1 = 0.4189, x2 = 0.2649 | 0.38 | 78.5
323.15 K, 100 kPa, x1 = 0.2745, x2 = 0.3509 | – | 16.7
323.15 K, 100 kPa, x1 = 0.3106, x2 = 0.3509 | – | 21.4
323.15 K, 100 kPa, x1 = 0.3509, x2 = 0.3509 | – | 29
323.15 K, 100 kPa, x1 = 0.3868, x2 = 0.3509 | – | 39
323.15 K, 100 kPa, x1 = 0.4189, x2 = 0.3509 | – | 50.9
323.15 K, 100 kPa, x1 = 0.4478, x2 = 0.3509 | – | 61.3
323.15 K, 100 kPa, x1 = 0.474, x2 = 0.3509 | – | 89.2
323.15 K, 100 kPa, x1 = 0.4978, x2 = 0.3509 | – | 120
333 K, 101 kPa, x1 = 0.2649, x2 = 0 | 2.58 | 16.2
333 K, 101 kPa, x1 = 0.2649, x2 = 0.2649 | 1.83 | 13.8
333 K, 101 kPa, x1 = 0.4189, x2 = 0.2649 | 0.53 | 51.9
333.15 K, 100 kPa, x1 = 0.2745, x2 = 0.3509 | – | 12.4
333.15 K, 100 kPa, x1 = 0.3106, x2 = 0.3509 | – | 15.9
333.15 K, 100 kPa, x1 = 0.3509, x2 = 0.3509 | – | 20.1
333.15 K, 100 kPa, x1 = 0.3868, x2 = 0.3509 | – | 26.2
333.15 K, 100 kPa, x1 = 0.4189, x2 = 0.3509 | – | 34.2
333.15 K, 100 kPa, x1 = 0.4478, x2 = 0.3509 | – | 41.8
333.15 K, 100 kPa, x1 = 0.474, x2 = 0.3509 | – | 53.7
333.15 K, 100 kPa, x1 = 0.4978, x2 = 0.3509 | – | 78.1
343.15 K, 100 kPa, x1 = 0.2745, x2 = 0.3509 | – | 9.49
343.15 K, 100 kPa, x1 = 0.3106, x2 = 0.3509 | – | 12.2
343.15 K, 100 kPa, x1 = 0.3509, x2 = 0.3509 | – | 15.2
343.15 K, 100 kPa, x1 = 0.3868, x2 = 0.3509 | – | 19.1
343.15 K, 100 kPa, x1 = 0.4189, x2 = 0.3509 | – | 24.5
343.15 K, 100 kPa, x1 = 0.4478, x2 = 0.3509 | – | 29.6
343.15 K, 100 kPa, x1 = 0.474, x2 = 0.3509 | – | 37.2
343.15 K, 100 kPa, x1 = 0.4978, x2 = 0.3509 | – | 49.7
353.15 K, 100 kPa, x1 = 0.2745, x2 = 0.3509 | – | 7.49
353.15 K, 100 kPa, x1 = 0.3106, x2 = 0.3509 | – | 9.62
353.15 K, 100 kPa, x1 = 0.3509, x2 = 0.3509 | – | 11.8
353.15 K, 100 kPa, x1 = 0.3868, x2 = 0.3509 | – | 14.5
353.15 K, 100 kPa, x1 = 0.4189, x2 = 0.3509 | – | 18.4
353.15 K, 100 kPa, x1 = 0.4478, x2 = 0.3509 | – | 21.9
353.15 K, 100 kPa, x1 = 0.474, x2 = 0.3509 | – | 27
353.15 K, 100 kPa, x1 = 0.4978, x2 = 0.3509 | – | 35
363.15 K, 100 kPa, x1 = 0.2745, x2 = 0.3509 | – | 6.01
363.15 K, 100 kPa, x1 = 0.3106, x2 = 0.3509 | – | 7.72
363.15 K, 100 kPa, x1 = 0.3509, x2 = 0.3509 | – | 9.69
363.15 K, 100 kPa, x1 = 0.3868, x2 = 0.3509 | – | 11.3
363.15 K, 100 kPa, x1 = 0.4189, x2 = 0.3509 | – | 14.2
363.15 K, 100 kPa, x1 = 0.4478, x2 = 0.3509 | – | 16.6
363.15 K, 100 kPa, x1 = 0.474, x2 = 0.3509 | – | 20.3
363.15 K, 100 kPa, x1 = 0.4978, x2 = 0.3509 | – | 25.7

O=S(=O)([N-]S(=O)(=O)C(F)(F)F)C(F)(F)F.[Li+] + CC[n+]1ccn(C)c1.O=S(=O)([O-])C(F)(F)F
electrical conductivity [S/m], 101 kPa
Details | x1 = 0.007746 | x1 = 0.01537 | x2 = 0.9697 | x2 = 0.9746
288.15 K | 0.587 | 0.557 | – | 0.538
298.15 K | 0.844 | 0.823 | 0.778 | 0.785
333.15 K | 2.14 | 2.13 | 2.04 | 2.04

OCCO + CC[n+]1ccn(C)c1.O=S(=O)([O-])C(F)(F)F
100 kPa, x1 = 1
Details | viscosity [mPa·s]
308.15 K | 11.16
318.15 K | 7.91
